Laboratory results from ChEMBL document CHEMBL3046161, “Synthesis of potential antitubercular and antimicrobial s-triazine-based scaffolds via Suzuki cross-coupling reaction” (2013).
Converted amounts (≈) assume the structure as drawn.

Experiments:
Assay type in all cases: functional
Salmonella typhi [1] = assay: Antibacterial activity against Salmonella enterica subsp. enterica serovar Typhi MTCC 733 assessed as growth inhibition at 3.12 to 50 ug/mL after 24 hr by agar disk diffusion method
Klebsiella pneumoniae [2] = assay: Antibacterial activity against Klebsiella pneumoniae MTCC 109 assessed as growth inhibition at 3.12 to 50 ug/mL after 24 hr by agar disk diffusion method
Klebsiella pneumoniae [3] = assay: Antibacterial activity against Klebsiella pneumoniae MTCC 109 assessed as growth inhibition after 24 hr by agar streak dilution method; conditions: MTCC 109, 24 h
Salmonella typhi [4] = assay: Antibacterial activity against Salmonella enterica subsp. enterica serovar Typhi MTCC 733 assessed as growth inhibition after 24 hr by agar streak dilution method; conditions: MTCC 733, 24 h
Pseudomonas aeruginosa [5] = assay: Antibacterial activity against Pseudomonas aeruginosa MTCC 741 assessed as growth inhibition after 24 hr by agar streak dilution method; conditions: MTCC 741, 24 h
Escherichia coli [6] = assay: Antibacterial activity against Escherichia coli MTCC 739 assessed as growth inhibition after 24 hr by agar streak dilution method; conditions: MTCC 739, 24 h
Bacillus cereus [7] = assay: Antibacterial activity against Bacillus cereus MTCC 430 assessed as growth inhibition after 24 hr by agar streak dilution method; conditions: MTCC 430, 24 h
Staphylococcus aureus [8] = assay: Antibacterial activity against Staphylococcus aureus MTCC 96 assessed as growth inhibition after 24 hr by agar streak dilution method; conditions: MTCC 96, 24 h
[9] = tested on: Mycobacterium tuberculosis; assay: Antimycobacterial activity against Mycobacterium tuberculosis H37Rv assessed as growth inhibition at MIC after 12 to 28 days by Lowenstein and Jensen agar dilution method
[10] = tested on: Mycobacterium tuberculosis; assay: Antimycobacterial activity against Mycobacterium tuberculosis H37Rv assessed as growth inhibition after 12 to 28 days by Lowenstein and Jensen agar dilution method
[11] = tested on: Mycobacterium tuberculosis; assay: Antimycobacterial activity against Mycobacterium tuberculosis H37Rv assessed as growth inhibition at MIC measured within 10 days by BACTEC MGIT method
[12] = tested on: Mycobacterium tuberculosis; assay: Antimycobacterial activity against Mycobacterium tuberculosis H37Rv assessed as growth inhibition measured within 10 days by BACTEC MGIT method; conditions: 240 h
Candida albicans [13] = assay: Antifungal activity against Candida albicans MTCC 183 assessed as growth inhibition at 3.12 to 50 ug/mL after 24 hr by agar disk diffusion method
Aspergillus clavatus [14] = assay: Antifungal activity against Aspergillus clavatus MTCC 1323 assessed as growth inhibition at 3.12 to 50 ug/mL after 24 hr by agar disk diffusion method
Aspergillus fumigatus [15] = assay: Antifungal activity against Aspergillus fumigatus MTCC 343 assessed as growth inhibition at 3.12 to 50 ug/mL after 24 hr by agar disk diffusion method
Aspergillus niger [16] = assay: Antifungal activity against Aspergillus niger MTCC 282 assessed as growth inhibition at 3.12 to 50 ug/mL after 24 hr by agar disk diffusion method
Candida albicans [17] = assay: Antifungal activity against Candida albicans MTCC 183 assessed as growth inhibition after 48 hr by agar streak dilution method; conditions: MTCC 183, 48 h
Aspergillus clavatus [18] = assay: Antifungal activity against Aspergillus clavatus MTCC 1323 assessed as growth inhibition after 48 hr by agar streak dilution method; conditions: MTCC 1323, 48 h
Aspergillus fumigatus [19] = assay: Antifungal activity against Aspergillus fumigatus MTCC 343 assessed as growth inhibition after 48 hr by agar streak dilution method; conditions: MTCC 343, 48 h
Aspergillus niger [20] = assay: Antifungal activity against Aspergillus niger MTCC 282 assessed as growth inhibition after 48 hr by agar streak dilution method; conditions: MTCC 282, 48 h
Shigella flexneri [21] = assay: Antibacterial activity against Shigella flexneri MTCC 1457 assessed as growth inhibition at 3.12 to 50 ug/mL after 24 hr by agar disk diffusion method
Proteus vulgaris [22] = assay: Antibacterial activity against Proteus vulgaris MTCC 1771 assessed as growth inhibition at 3.12 to 50 ug/mL after 24 hr by agar disk diffusion method
Pseudomonas aeruginosa [23] = assay: Antibacterial activity against Pseudomonas aeruginosa MTCC 741 assessed as growth inhibition at 3.12 to 50 ug/mL after 24 hr by agar disk diffusion method
Escherichia coli [24] = assay: Antibacterial activity against Escherichia coli MTCC 739 assessed as growth inhibition at 3.12 to 50 ug/mL after 24 hr by agar disk diffusion method
Bacillus cereus [25] = assay: Antibacterial activity against Bacillus cereus MTCC 430 assessed as growth inhibition at 3.12 to 50 ug/mL after 24 hr by agar disk diffusion method
Staphylococcus aureus [26] = assay: Antibacterial activity against Staphylococcus aureus MTCC 96 assessed as growth inhibition at 3.12 to 50 ug/mL after 24 hr by agar disk diffusion method
Shigella flexneri [27] = assay: Antibacterial activity against Shigella flexneri MTCC 1457 assessed as growth inhibition after 24 hr by agar streak dilution method; conditions: MTCC 1457, 24 h
Proteus vulgaris [28] = assay: Antibacterial activity against Proteus vulgaris MTCC 1771 assessed as growth inhibition after 24 hr by agar streak dilution method; conditions: MTCC 1771, 24 h

Row | SMILES | inhibition zone (IZ) (Salmonella typhi [1]) | inhibition zone (IZ) (Klebsiella pneumoniae [2]) | MIC (Klebsiella pneumoniae [3]) | MIC (Salmonella typhi [4]) | MIC (Pseudomonas aeruginosa [5]) | MIC (Escherichia coli [6]) | MIC (Bacillus cereus [7]) | MIC (Staphylococcus aureus [8]) | growth inhibition (GI) [9] | MIC [10] | growth inhibition (GI) [11] | MIC [12] | inhibition zone (IZ) (Candida albicans [13]) | inhibition zone (IZ) (Aspergillus clavatus [14]) | inhibition zone (IZ) (Aspergillus fumigatus [15]) | inhibition zone (IZ) (Aspergillus niger [16]) | MIC (Candida albicans [17]) | MIC (Aspergillus clavatus [18]) | MIC (Aspergillus fumigatus [19]) | MIC (Aspergillus niger [20]) | other results
1 | CCOc1ccc2nc(NC(=O)CNc3ccc(-c4nc(N5CC(C)CC(C)C5)nc(N5CC(C)CC(C)C5)n4)cc3)sc2c1 (stereo unspecified) | 19 mm | 24 mm | 50 µg/mL (≈ 79.5 µM) | 50 µg/mL (≈ 79.5 µM) | 12.5 µg/mL (≈ 19.9 µM) | 12.5 µg/mL (≈ 19.9 µM) | 25 µg/mL (≈ 39.8 µM) | 6.25 µg/mL (≈ 9.94 µM) | 99% | 6.25 µg/mL (≈ 9.94 µM) | 99% | 6.25 µg/mL (≈ 9.94 µM) | 25 mm | 16 mm | 16 mm | 20 mm | 12.5 µg/mL (≈ 19.9 µM) | 50 µg/mL (≈ 79.5 µM) | 50 µg/mL (≈ 79.5 µM) | 25 µg/mL (≈ 39.8 µM) | inhibition zone (IZ) (Shigella flexneri [21]): 17 mm; inhibition zone (IZ) (Proteus vulgaris [22]): 26 mm; inhibition zone (IZ) (Pseudomonas aeruginosa [23]): 23 mm; inhibition zone (IZ) (Escherichia coli [24]): 23 mm; inhibition zone (IZ) (Bacillus cereus [25]): 24 mm; inhibition zone (IZ) (Staphylococcus aureus [26]): 23 mm; MIC (Shigella flexneri [27]): 50 µg/mL (≈ 79.5 µM); MIC (Proteus vulgaris [28]): 12.5 µg/mL (≈ 19.9 µM)
2 | CC1CC(C)CN(c2nc(-c3ccc(NCC(=O)Nc4nc5ccc(F)cc5s4)cc3)nc(N3CC(C)CC(C)C3)n2)C1 (stereo unspecified) | 23 mm | 25 mm | 25 µg/mL (≈ 41.5 µM) | 12.5 µg/mL (≈ 20.7 µM) | 25 µg/mL (≈ 41.5 µM) | 25 µg/mL (≈ 41.5 µM) | 3.12 µg/mL (≈ 5.18 µM) | 3.12 µg/mL (≈ 5.18 µM) | 99% | 3.12 µg/mL (≈ 5.18 µM) | 99% | 6.25 µg/mL (≈ 10.4 µM) | 23 mm | 25 mm | 25 mm | 22 mm | 50 µg/mL (≈ 82.9 µM) | 50 µg/mL (≈ 82.9 µM) | 25 µg/mL (≈ 41.5 µM) | 12.5 µg/mL (≈ 20.7 µM) | inhibition zone (IZ) (Shigella flexneri [21]): 26 mm; inhibition zone (IZ) (Proteus vulgaris [22]): 25 mm; inhibition zone (IZ) (Pseudomonas aeruginosa [23]): 25 mm; inhibition zone (IZ) (Escherichia coli [24]): 20 mm; inhibition zone (IZ) (Bacillus cereus [25]): 28 mm; inhibition zone (IZ) (Staphylococcus aureus [26]): 25 mm; MIC (Shigella flexneri [27]): 6.25 µg/mL (≈ 10.4 µM); MIC (Proteus vulgaris [28]): 25 µg/mL (≈ 41.5 µM)
3 | CC1CC(C)CN(c2nc(-c3ccc(NCC(=O)Nc4ccccc4)cc3)nc(N3CC(C)CC(C)C3)n2)C1 (stereo unspecified) | <10 mm | <10 mm | 50 µg/mL (≈ 94.7 µM) | 50 µg/mL (≈ 94.7 µM) | 50 µg/mL (≈ 94.7 µM) | 50 µg/mL (≈ 94.7 µM) | 50 µg/mL (≈ 94.7 µM) | 50 µg/mL (≈ 94.7 µM) | 95% | 250 µg/mL (≈ 474 µM) | – | > 6.25 µg/mL | <10 mm | <10 mm | <10 mm | <10 mm | > 50 µg/mL | > 50 µg/mL | 50 µg/mL (≈ 94.7 µM) | 50 µg/mL (≈ 94.7 µM) | inhibition zone (IZ) (Shigella flexneri [21]): <10 mm; inhibition zone (IZ) (Proteus vulgaris [22]): 14 mm; inhibition zone (IZ) (Pseudomonas aeruginosa [23]): 19 mm; inhibition zone (IZ) (Escherichia coli [24]): <10 mm; inhibition zone (IZ) (Bacillus cereus [25]): 12 mm; inhibition zone (IZ) (Staphylococcus aureus [26]): 11 mm; MIC (Shigella flexneri [27]): 50 µg/mL (≈ 94.7 µM); MIC (Proteus vulgaris [28]): 50 µg/mL (≈ 94.7 µM)
4 | CC1CC(C)CN(c2nc(-c3ccc(NCC(=O)Nc4ccc(Cl)cc4)cc3)nc(N3CC(C)CC(C)C3)n2)C1 (stereo unspecified) | 18 mm | 21 mm | 50 µg/mL (≈ 88.9 µM) | 50 µg/mL (≈ 88.9 µM) | 25 µg/mL (≈ 44.5 µM) | 50 µg/mL (≈ 88.9 µM) | 50 µg/mL (≈ 88.9 µM) | 25 µg/mL (≈ 44.5 µM) | 98% | 25 µg/mL (≈ 44.5 µM) | – | > 6.25 µg/mL | <10 mm | <10 mm | 14 mm | <10 mm | > 50 µg/mL | > 50 µg/mL | 50 µg/mL (≈ 88.9 µM) | 50 µg/mL (≈ 88.9 µM) | inhibition zone (IZ) (Shigella flexneri [21]): 24 mm; inhibition zone (IZ) (Proteus vulgaris [22]): 21 mm; inhibition zone (IZ) (Pseudomonas aeruginosa [23]): 26 mm; inhibition zone (IZ) (Escherichia coli [24]): 12 mm; inhibition zone (IZ) (Bacillus cereus [25]): 13 mm; inhibition zone (IZ) (Staphylococcus aureus [26]): 18 mm; MIC (Shigella flexneri [27]): 12.5 µg/mL (≈ 22.2 µM); MIC (Proteus vulgaris [28]): 50 µg/mL (≈ 88.9 µM)
5 | COc1ccc(NC(=O)CNc2ccc(-c3nc(N4CC(C)CC(C)C4)nc(N4CC(C)CC(C)C4)n3)cc2)cc1 (stereo unspecified) | 20 mm | <10 mm | 50 µg/mL (≈ 89.6 µM) | 25 µg/mL (≈ 44.8 µM) | 50 µg/mL (≈ 89.6 µM) | 50 µg/mL (≈ 89.6 µM) | 25 µg/mL (≈ 44.8 µM) | 50 µg/mL (≈ 89.6 µM) | 99% | 6.25 µg/mL (≈ 11.2 µM) | 99% | 6.25 µg/mL (≈ 11.2 µM) | 21 mm | <10 mm | <10 mm | 14 mm | 25 µg/mL (≈ 44.8 µM) | > 50 µg/mL | > 50 µg/mL | 50 µg/mL (≈ 89.6 µM) | inhibition zone (IZ) (Shigella flexneri [21]): 19 mm; inhibition zone (IZ) (Proteus vulgaris [22]): 22 mm; inhibition zone (IZ) (Pseudomonas aeruginosa [23]): 22 mm; inhibition zone (IZ) (Escherichia coli [24]): 19 mm; inhibition zone (IZ) (Bacillus cereus [25]): 23 mm; inhibition zone (IZ) (Staphylococcus aureus [26]): 16 mm; MIC (Shigella flexneri [27]): 50 µg/mL (≈ 89.6 µM); MIC (Proteus vulgaris [28]): 25 µg/mL (≈ 44.8 µM)
6 | CC[C@@H](CO)NCCN[C@@H](CC)CO [ETHAMBUTOL] | – | – | – | – | – | – | – | – | – | – | 99% | 3.12 µg/mL (≈ 15.3 µM) | – | – | – | – | – | – | – | – | –
7 | NNC(=O)c1ccncc1 [ISONIAZID] | – | – | – | – | – | – | – | – | – | – | 99% | 0.2 µg/mL (≈ 1.46 µM) | – | – | – | – | – | – | – | – | –
8 | NC(=O)c1cnccn1 [PYRAZINAMIDE] | – | – | – | – | – | – | – | – | – | – | 99% | 6.25 µg/mL (≈ 50.8 µM) | – | – | – | – | – | – | – | – | –
9 | CO[C@H]1/C=C/O[C@@]2(C)Oc3c(C)c(O)c4c(O)c(c(/C=N/N5CCN(C)CC5)c(O)c4c3C2=O)NC(=O)/C(C)=C\C=C\[C@H](C)[C@H](O)[C@@H](C)[C@@H](O)[C@@H](C)[C@H](OC(C)=O)[C@@H]1C [RIFAMPIN] | – | – | – | – | – | – | – | – | – | – | 99% | 0.25 µg/mL (≈ 0.304 µM) | – | – | – | – | – | – | – | – | –
